# Where two headings read alike, the source gives them in different places.
# Key:
# Format in all cases: cell-based, human
# BEAS-2B cells [1] = experiment: MTT cytotoxicity assay, BEAS-2B cells; details: for IC50: table prints none, read-out: average IC50, BEAS-2B cells (mean ± SD)
# A549 cells [2] = experiment: MTT cytotoxicity assay, A549 cells (with selectivity index); details: for Selectivity index (SI): IC50 normal cells (BEAS-2B) / IC50 cancer cells (A549); for IC50: table prints none, read-out: average IC50, A549 cells (mean ± SD)
# Method: Both A549 and BEAS-2B cells were originally purchased from the American Type Culture Collection (ATCC, USA). Both cells were cultured in Dulbecco's Modified Eagle's Medium (DMEM: Gibco, USA) and 1 : 1 mixture of DMEM and Ham's F-12 (DMEM-F12; Gibco, USA) medium with phenol red and supplemented with 10% fetal bovine serum (FBS; Gibco, USA), 0.1% (v/v) penicillin-streptomycin, and 2 mM L-glutamine (PenStrep; Gibco, USA). The cell lines were maintained in a humidified environment at 37°C with 5% CO2.
# The culture medium alone (without cells) was included as a blank for this test. A549 and BEAS-2B cells were treated with Cisplatin as a positive control. A total of 10 μL of MTT solution (5 mg/mL) was applied to each well at about 24 to 72 hours after treatment and was further incubated for 4 hours in the dark at 37°C with 5% CO2. Upon incubation, the mixture solution was aspirated, and 100 μL of dimethyl sulfoxide (DMSO) (Fisher Scientific, USA) was added to solubilise the purple formazan. The optical density (O.D.) of each sample was measured at a 570 nm wavelength using a microplate reader (BioTek Instruments, Inc, USA). The percentage (%) of cell viability was determined using the following formula [37]:(1) Cell viability%=O.D.treatment–O.D.blank/O.D.untreated cell–O.D.blank×100%.
# Based on the measured cell viability (%), a graph was created to display the dose-response curves for each cell line. […] The data was expressed as a mean and standard deviation with each experiment consisting of triplicates. Statistical differences between untreated cells and treated cells were determined using Student's t-test (IBM SPSS Statistics 27).
# A549 cells [3] = experiment: Apoptosis by DAPI and AO/PI double staining, A549 cells; details: A549, IC50, 24 hours
# Method: (§1) DAPI staining is used to assess apoptosis-related morphological changes such as nuclear fragmentation or condensation. […] AO stains both live and dead cells, whereas PI stains only the dead cells. […] Following incubation, the cells were washed with PBS and then fixed with 1 mL of 4% paraformaldehyde (Sigma-Aldrich, St. Louis, Missouri, USA) and cold 70% ethanol for 10 minutes at room temperature. Then, the cells were stained with a 1 : 1 ratio of 10 µg/mL of DAPI (Nacalai, Tesque chemical, Kyoto, Japan) and 10 μg/mL acridine orange/propidium iodide (Sigma-Aldrich, St. Louis, Missouri, USA) and incubated for 30 minutes in the dark. An Olympus IX71 inverted fluorescence microscope (Olympus, Tokyo, Japan) was used to observe and record the morphology of the cells.
# BEAS-2B cells [4] = experiment: Intracellular ROS, CM-H2DCFDA assay, BEAS-2B cells; details: treated with IC50 for 24 hours, control (untreated cells) set to 1
# Method: (§2) After exposure, cells were washed with PBS and loaded with 2.5 μM of CM-H2DCFDA in phenol red and FBS-free media in the dark for 30 minutes at 37°C. Subsequently, the reaction mixture was aspirated; cells were washed with fresh culture media and replaced with 100 μL of culture media. The DCF fluorescence intensity was measured at 485 nm excitation and 520 nm emission using a FLUOstar Omega fluorescence plate reader (BMG Labtech, Ortenberg, Germany). Results are presented as mean fold change ± standard deviation of three independent experiments.
# BEAS-2B cells [5] = experiment: Apoptosis by DAPI and AO/PI double staining, BEAS-2B cells; details: IC50, 24 hours
# Method: as §1
# BEAS-2B cells [6] = experiment: Comet Assay DNA damage, BEAS-2B cells; set-up: key to DNA damage class (comet visual scoring, Classes 0–4): Class 4: Classes 0–4 to be used for visual scoring. The increased number of classes represents the increase in DNA damage severity; Class 3: Classes 0–4 to be used for visual scoring. The increased number of classes represents the increase in DNA damage severity; Class 2: Classes 0–4 to be used for visual scoring. The increased number of classes represents the increase in DNA damage severity; details: for DNA damage class (comet visual scoring, Classes 0–4): IC50 for 24 h (H2O2: 100 μM); for % DNA in tail / Olive tail moment / Tail length (px): IC50 for 24 h (H2O2: 100 μM, 20 minutes)
# Method: (§3) The Comet Assay® kit (Trevigen, Inc, USA) was used to perform DNA damage activity analysis. […] After being detached by Accutase (BD™Bioscience, USA), the cells were collected and washed with ice-cold PBS. […] The cells were then lysed in the lysis solution at 4°C for 30 minutes. Then, the cells were kept in an alkaline unwinding solution at room temperature for 20 minutes to allow the DNA to unwind. The test was immediately followed by electrophoresis, performed at 21 V and 300 mA for 30 minutes. Slides were washed in 70% ethanol and water and stained with SYBR® gold nucleic acid gel stain (Invitrogen, Thermo Fisher Scientific, USA) before visualisation under the Olympus IX71 inverted fluorescence microscope (Olympus, Tokyo, Japan). A total of 50 cells were randomly selected and captured per sample at 100× magnification and analysed using the Open Comet Image J available at https:/www.cometbio.org/. Tail length, percentage of tail DNA, and Olive Tail Moment (OTM) were calculated for DNA damage assessment.
# A549 cells [7] = experiment: Comet Assay DNA damage, A549 cells; set-up: key to DNA damage class (comet visual scoring, Classes 0–4): Class 4: Classes 0–4 to be used for visual scoring. The increased number of classes represents the increase in DNA damage severity; Class 3: Classes 0–4 to be used for visual scoring. The increased number of classes represents the increase in DNA damage severity; Class 2: Classes 0–4 to be used for visual scoring. The increased number of classes represents the increase in DNA damage severity; details: for DNA damage class (comet visual scoring, Classes 0–4): IC50 for 24 h (H2O2: 100 μM); for % DNA in tail / Olive tail moment / Tail length (px): IC50 for 24 h (H2O2: 100 μM, 20 minutes)
# Method: as §3
# A549 cells [8] = experiment: Intracellular ROS, CM-H2DCFDA assay, A549 cells; details: A549, treated with IC50 for 24 hours; control (untreated cells) set to 1
# Method: as §2
Structure (SMILES),IC50 (BEAS-2B cells [1]; 24 h) [µM],IC50 (BEAS-2B cells [1]; 48 h) [µM],IC50 (BEAS-2B cells [1]; 72 h) [µM],"DNA damage class (comet visual scoring, Classes 0–4) (BEAS-2B cells [6])",% DNA in tail (BEAS-2B cells [6]) [%],Olive tail moment (BEAS-2B cells [6]),Tail length (px) (BEAS-2B cells [6]),"DNA damage class (comet visual scoring, Classes 0–4) (A549 cells [7])",% DNA in tail (A549 cells [7]) [%],Olive tail moment (A549 cells [7]),Tail length (px) (A549 cells [7]),other results
"O=[N+]([O-])[O-].[Ag+] [AgNO3, silver nitrate]",16 ± 0.03,15 ± 0.02,14 ± 0.02,,,,,,,,,concentrations decreasing proliferation of BEAS-2B cells to nearly 50% (BEAS-2B cells [1]; after 24 to 74 hours of treatment (so in the source)): 20 to 100 µM
N.N.[Cl][Pt][Cl] [Cisplatin],69.2 ± 1.75,31.6 ± 3.27,18.84 ± 0.13,Class 4,63.79 ± 3.01,78.49 ± 0.8,160.07 ± 3.3,Class 3,48.26 ± 4.54,28.81 ± 4.94,73.83 ± 8.9,"Selectivity index (SI) (A549 cells [2]; 24 h): 1.32; Selectivity index (SI) (A549 cells [2]; 48 h): 1.66; Selectivity index (SI) (A549 cells [2]; 72 h): 1.08; IC50 (A549 cells [2]; MTT, 24 h): 52.5 ± 7.92 µM; IC50 (A549 cells [2]; MTT, 48 h): 19.1 ± 3.19 µM; IC50 (A549 cells [2]; MTT, 72 h): 17.5 ± 0.6 µM; concentration at which A549 cells were significantly dead (A549 cells [2]; MTT, all three time points (24, 48, 72 h)): 50 µM; mode of cell death (DAPI, AO/PI staining), in words (A549 cells [3]): induce apoptosis; ROS level, DCF fold (BEAS-2B cells [4]): 1.23 ± 0.01 fold change; mode of cell death (DAPI, AO/PI staining), in words (BEAS-2B cells [5]): induce apoptosis; concentration at which BEAS-2B cells were significantly dead (BEAS-2B cells [1]; all three time points (24, 48, 72 h)): 65 µM; ROS level, DCF fold (A549 cells [8]): 1.16 ± 0.04 fold change"
OO [H2O2],,,,Class 4,85.86 ± 2.71,27.63 ± 4.6,53.91 ± 9.95,Class 2,35.64 ± 9.31,9.51 ± 3.49,25.3 ± 6.96,
